# System: firefly luciferase (FFL) production in the lung
# Test: Delivery of firefly luciferase (FFL) mRNA by intratracheal administration, IVIS imaging of luciferase production in the lung
# Assay type: in vivo
# Conditions: lipid nanoparticles with FFL mRNA, cationic lipid, DMG-PEG2000, cholesterol, DOPE; single intratracheal aerosol administration; male CD1 mice; 24 hours after administration
# Procedure: Lipid nanoparticle formulations comprising FFL mRNA, cationic lipid, DMG-PEG2000, cholesterol and DOPE were administered to male CD1 mice (6-8 weeks old) by a single intratracheal aerosol administration via a Microsprayer® (50 ul/animal) while under anesthesia. At approximately 24 hours post-dose, the animals were dosed with luciferin at 150 mg/kg (60 mg/ml) by intraperitoneal injection at 2.5 ml/kg. After 5-15 minutes, all animals were imaged using an IVIS imaging system to measure luciferase production in the lung.
row,Compound,in vivo protein (FFL) production in the lung / luciferase activity
1,CCCCC/C=C\C/C=C\CCCCCCCCOC(=O)CC(CC(=O)OCCCCCCCC/C=C\C/C=C\CCCCC)(OC(=O)CCCN(C)C)C(=O)OCCCCCCCC/C=C\C/C=C\CCCCC [Compound 249],high levels
2,"CCCCCCCC(=O)OCC(COC(=O)CCCCCCC)(COC(=O)CCCCCCC)N(CC(=O)OCCN(C)C)C(=O)CCCCCCC [Compound 177, 2-(N-(2-(2-(dimethylamino)ethoxy)-2-oxoethyl)octanamido)-2-((octanoyloxy)methyl) propane-1,3-diyl dioctanoate]",high levels
3,CCCCCCCCCCCCCCOC(=O)CC(CC(=O)OCCCCCCCCCCCCCC)(OC(=O)CCN1CCCCC1)C(=O)OCCCCCCCCCCCCCC [Compound 16],high levels
4,"CCCCCCCCOC(=O)CC(CC(=O)OCCCCCCCC)(OC(=O)CCN(C)C)C(=O)OCCCCCCCC [Compound 1, trioctyl 2-((3-(dimethylamino)propanoyl)oxy) propane-1,2,3-tricarboxylate]",high levels
